From patent US20250195576A1, “METHOD TO GENERATE MORE EFFICIENT CAR-T CELLS” (INSTITUT NATIONAL DE LA SANTÉ ET DE LA RECHERCHE MÉDICALE, priority 2022, published 2025)

Columns and labels:
[1] = test system: Human primary T lymphocytes; experiment: Granzyme B expression by intracellular flow cytometry; format: cell-based
Experimental: (§1) FIGS. 1A to 1C: FOXO1 inhibition allows increase number of cytotoxic T cells and increased their activity. Human primary T lymphocytes from healthy donor (PBT) were treated with AS1842856 (500 nM) or equivalent of DMSO for 7 days. (1A) Cells were surface labeled with anti-CD4 and anti-CD8, next fixed and permeabilized before labeled with antibodies against Granzyme B. The graphs present the values correspond to the mean±SEM obtained with three independent donors. Significance was assessed using a paired Student t-test. (1B) At the end of the culture, cells were stimulated by PMA and ionomycin during three hours. After CD4 and CD8 labelling, intracellular detection of TNF-α was performed using an antibody against TNF-α. The values correspond to the mean±SEM obtained with three independent donors. Significance was assessed using a paired Student t-test. (1C) CD8 T cells from vehicle or treated cells were purified and co-cultured with P815 target cells pre-coated with anti-CD3 mAb, percentage of lysis was evaluated by 51Cr release assay at different effector: target ratios. The values correspond to the mean±SEM obtained with three independent donors. Significance was assessed using 2-way Anova test.
Cells. […]
(§2) Flow cytometry. […] After wash with PBS, cells were immediately analyzed by flow cytometry. […] After two washes, cells were run on BD LSRII (BD Biosciences) and analyzed using FlowJo software.

[2] = test system: Human primary T lymphocytes; experiment: TNF-α intracellular labeling and cytokine secretion (MSD assay); format: cell-based
Experimental: as §1, §2

FOXO1 = experiment: CD62L expression by cytometry; format: cell-based, human
Experimental: Cell transfection. Cells were transfected by nucleofection using the Human T Cell Nucleofector solution (Lonza, VPA-1002) and program U-014 of the Nucleofector AMAXA. For CRISPR, 2×10^6 cells were nucleofected with 75 pmol of Cas9 protein (Thermo Fisher, #A36499) and one RNA guide targeting the FOXO1 gene (Thermo Fisher, #sgRNACRISPR889854_SGM Foxo1) at a 1:1 molar ratio. To induce FOXO1 expression, 5×10^6 cells were transfected with 5 μg DNA of the pEGFP-FOXO1-T24A-S256A-S319A-H215R plasmid (Nagashima et al., 2010) or pEGFP-N1 (clontech) as control. Jurkat T cells (5×106 in RPMI 1640 medium) were electroporated at 260 V, 1000 μF in 4-mm polycarbonate cuvettes (Eurogentec) with 5 μg of the GFP, the triple mutant T24A/S256A/S319A FOX01-GFP (FOXO1-TM-GFP) or the FOXO1-TM-GFP DNA binding mutant plasmids (FOXO1-TM-H215R-GFP) (Fabre et al. 2008). Four hours later, AS1842856 was added or not in the culture. At 48 hours, CD62L expression was analyzed by cytometry.
Flow cytometry. Cells were washed and stained with antibodies diluted in PBS (Thermo Fisher Scientific; cat #10010001) supplemented with 0.1% BSA (Sigma-Aldrich, cat #A7030-500G) for 20 minutes at 4° C. After wash with PBS, cells were immediately analyzed by flow cytometry. […] After two washes, cells were run on BD LSRII (BD Biosciences) and analyzed using FlowJo software.

[3] = test system: Human primary T lymphocytes; experiment: Chemokine receptor membrane expression by flow cytometry; format: cell-based; details: data not shown
Experimental: (§3) Flow cytometry. Cells were washed and stained with antibodies diluted in PBS (Thermo Fisher Scientific; cat #10010001) supplemented with 0.1% BSA (Sigma-Aldrich, cat #A7030-500G) for 20 minutes at 4° C. After wash with PBS, cells were immediately analyzed by flow cytometry. For intracellular staining, cells were fixed with 4% paraformaldehyde (PFA) for 10 minutes at room temperature, permeabilized using a buffer containing 0.1% Saponin (Sigma-Aldrich, 84510) in PBS and stained after two PBS washes using antibodies diluted in the same saponin buffer for 30 minutes at 4° C. After two washes, cells were run on BD LSRII (BD Biosciences) and analyzed using FlowJo software.

[4] = test system: Human primary T lymphocytes; experiment: T cell subsets and immune checkpoint expression by flow cytometry; format: cell-based
Experimental: PBT were treated with 500 nM of AS1842856 or vehicle only for 7 days. (3A) Memory subsets composition in vehicle or AS1842856 CD4 (upper panel) and CD8 (lower panel) cells. TN are CD45RA+, CD27+, CD95−; TSCM are CD45RA+, CD27+, CD95+; TCM are CD45RA−, CD27+; TEM are CD45RA−, CD27− and Teff are CD45RA+, CD27−. The graphs show the mean percentage±SEM of the different subsets in vehicle or AS1842856 conditions on CD4 (upper panel) and CD8 (lower panel) T cells obtained with five independent donors. Significance was assessed using 1-way Anova test. (3B) CTLA-4, PD-1 and TIGIT expressions on CD4 (upper panel) and CD8 (lower panel) T cells were measured by FACS. The graphs show the MFI±SEM obtained with five independent donors. Significance was assessed using a paired Student t-test.
as §3

[5] = test system: Human primary T lymphocytes; experiment: Viability assay (propidium iodide); format: cell-based; details: in vitro culture
Experimental: PBT were treated with AS1842856 (500 nM) or vehicle only. Every seven days, some cells from the two conditions were collected and labeled with Propidium Iodide (PI). […] Significance was assessed using 2-way Anova test.
Viability assay. Cells were collected and propidium iodide was added (10 μg/ml, Invitrogen). Samples were run on FACSCalibur (Becton Dickinson) and analyzed using FlowJo software.

[6] = test system: Human primary T lymphocytes; experiment: Calcium measurements upon TCR stimulation; format: cell-based; details: compared to untreated cells; data not shown
Experimental: Calcium Measurements. T cells were incubated for 20 minutes at 37° C. with 1.5 μM Fura-2/AM (Molecular Probes, F1225). Experiments were performed at 37° C. in mammalian saline buffer (140 mM NaCl, 5 mM KCl, 1 mM CaCl2, 1 mM MgCl2, 20 mM HEPES, 11 mM glucose). Calcium measurements by spectrofluorimetry were performed as previously described (Conche et al. 2009) with a Cary Eclipse spectrofluorimeter (Varian) (excitation: 340 and 380 nm; emission: 510 nm).

[7] = test system: ERK and AKT signaling proteins; experiment: Western blot of ERK and AKT phosphorylation upon TCR stimulation; format: cell-based, human; details: after TCR stimulation, including at steady state; data not shown
Experimental: Western blot analysis. Protein expression levels were analyzed by Western blot as described (Froehlich et al. 2016). Blotting with primary was followed by goat-anti-mouse- or goat-anti-rabbit-HRP (Jackson ImmunoReseach) incubation and ECL revelation (GE Healthcare, #RPN2106).

[8] = test system: Human primary T lymphocytes; experiment: In vitro proliferation assay (CFSE dilution, anti-CD3/CD28 beads); format: cell-based; details: data not shown
Experimental: Proliferation assay. In vitro proliferation assay of primary T cells was assessed by dilution of Cell Trace Fluorescent Green kit (CFSE, Invitrogen, cat #C34554). After two washes in RPMI 1640 GlutaMAX medium, cells were resuspended at 4×10^6 cells per ml in a 5 μM Cell Trace Fluorescent Green solution. Cells were incubated in dark at 37° C. for 20 minutes. After the loading, cells were washed with a volume of hot RPMI medium supplemented with 10% Human AB serum, penicillin and streptomycin (50U/ml and 50 μg/m respectively) corresponding to 5 times the loading volume. Cell suspension was collected and dispensed into 96-wells round-bottom plates (2×10^5 cells per well) and stimulated using anti-CD3/CD28 coated-beads Dynabeads (Invitrogen, #11131D) for 3 days. Samples were run on BD LSR Fortessa and analyzed using FlowJo software. For in vivo proliferation assay, T^AS cells were labeled by dilution of CFSE as for in vitro proliferation assay described above. Then 10^7 CFSE^+ cells per immunodificient NSG mouse (NOD.Cg-Prkde^scid I12rg^tm1WjI/SzJ mouse, cat #JAX: 005557, Charles River) resuspended in 100 μL PBS supplemented by 10% FBS were intravenously injected in the retro-orbital vein. 5, 9 or 12 days after injection, spleens were collected to be minced and meshed on the top of a 40 μm cell strainer (Thermo Fisher, #22363547). […] Data were analyzed using FlowJo software.

SMILES: CCn1cc(C(=O)O)c(=O)c2c(N)c(F)c(NC3CCCCC3)cc21 [AS1842856]
- Granzyme B expression in CD8 subset ([1]; AS1842856 500 nM, 7 days, CD8 T cells): upregulated
- Increase of granzyme B expression ([1]; same conditions as Foxo1 invalidation by CRISPR, data not shown): more than two-fold increase
- TNF-α expression (percentage of cells, intracellular labeling) ([2]; 500 nM 7 days, then PMA and ionomycin three hours): significantly increased
- TNF-α secreted in supernatant (MSD assay) ([2]; data not shown): confirmed
- CD62L expression in Jurkat T cells with FOXO1 H215R mutant (FOXO1; Jurkat T cell line transfected with FOXO1 H215R mutant, 48 hours, data not shown): could not be further decreased
- CD62L expression (FOXO1; primary T cells): decrease
- CCR4 membrane expression [3]: increase
- CCR6 membrane expression [3]: increase
- CX3CR1 membrane expression [3]: increase
- CXCR4 membrane expression [3]: significant decrease
- CTLA-4 expression [4]: no significant modification
- Markers of Th1 (T-bet+), Th2 (GATA3+) and Treg (FOXP3+) subsets ([4]; CD4 subsets, data not shown): no significant changes
- Cells expressing PD1 ([4]; after AS1842856 treatment): no more than 10%
- Naive subset (CD45RA+/CD27+/CD95−) ([4]; both CD4 and CD8 T cells): sharp decrease
- TSCM subset (CD45RA+/CD27+/CD95+) ([4]; both CD4 and CD8 T cells): strong increase
- PD1 expression ([4]; both CD8+ and CD4+ cells): small but significant increase
- CD8 expression ([4]; data not shown): decreased expression
- Tfh (CXCR5+, BcL-6+) subset ([4]; data not shown): slight increase
- TIGIT expression ([4]; reaching significance only in CD8+ T cells): consistent increase
- T cell viability [5]: promotes
- Toxicity on T cells [5]: no toxicity
- Calcium influx induced upon TCR stimulation [6]: less rapid and of a lower magnitude
- Phosphorylation of AKT [7]: hypophosphorylation
- Phosphorylation of ERK [7]: hyperphosphorylation
- CFSE dilution peaks ([8]; after 60h of stimulation): greater number of CFSE dilution peaks
- Time to proliferation after stimulation ([8]; anti-CD3/CD28 beads, CFSE): 40 h
